Data as given in PMC12207590, “Substrate Specificity of the Organic Cation Transporters MATE1 and MATE2K and Functional Overlap with OCT1 and OCT2” (Journal of Medicinal Chemistry, 2025).
Read-outs that look alike come from different tables or passages of the source.

How the values were obtained:
[1] = molecular target: T1, MATE1 (Homo sapiens, UniProt Q96FL8); experiment: Uptake ratio in MATE1-overexpressing HEK293 cells vs empty vector (2.5 μM, 1 min, HPLC-MS/MS); assay type: cell-based
T1 sequence (Q96FL8 1-570): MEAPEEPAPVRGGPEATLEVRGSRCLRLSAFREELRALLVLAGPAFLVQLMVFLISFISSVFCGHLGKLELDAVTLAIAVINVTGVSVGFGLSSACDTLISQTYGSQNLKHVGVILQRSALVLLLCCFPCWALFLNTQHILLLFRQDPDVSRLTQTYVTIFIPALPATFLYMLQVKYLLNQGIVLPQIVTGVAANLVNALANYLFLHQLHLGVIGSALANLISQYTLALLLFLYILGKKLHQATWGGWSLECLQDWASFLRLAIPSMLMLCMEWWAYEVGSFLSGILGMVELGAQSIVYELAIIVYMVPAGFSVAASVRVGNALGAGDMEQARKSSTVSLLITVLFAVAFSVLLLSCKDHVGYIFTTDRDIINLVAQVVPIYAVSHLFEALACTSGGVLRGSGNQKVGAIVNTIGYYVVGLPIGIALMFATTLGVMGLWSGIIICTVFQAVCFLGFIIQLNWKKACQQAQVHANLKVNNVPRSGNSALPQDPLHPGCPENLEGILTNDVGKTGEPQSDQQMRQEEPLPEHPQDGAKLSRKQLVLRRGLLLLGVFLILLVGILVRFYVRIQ

[2] = molecular target: MATE2K (Homo sapiens, UniProt Q86VL8); experiment: Uptake ratio in MATE2K-overexpressing HEK293 cells vs empty vector (2.5 μM, 1 min, HPLC-MS/MS); assay type: cell-based
Chain of MATE2K (Q86VL8 1-566 isoform Q86VL8-3): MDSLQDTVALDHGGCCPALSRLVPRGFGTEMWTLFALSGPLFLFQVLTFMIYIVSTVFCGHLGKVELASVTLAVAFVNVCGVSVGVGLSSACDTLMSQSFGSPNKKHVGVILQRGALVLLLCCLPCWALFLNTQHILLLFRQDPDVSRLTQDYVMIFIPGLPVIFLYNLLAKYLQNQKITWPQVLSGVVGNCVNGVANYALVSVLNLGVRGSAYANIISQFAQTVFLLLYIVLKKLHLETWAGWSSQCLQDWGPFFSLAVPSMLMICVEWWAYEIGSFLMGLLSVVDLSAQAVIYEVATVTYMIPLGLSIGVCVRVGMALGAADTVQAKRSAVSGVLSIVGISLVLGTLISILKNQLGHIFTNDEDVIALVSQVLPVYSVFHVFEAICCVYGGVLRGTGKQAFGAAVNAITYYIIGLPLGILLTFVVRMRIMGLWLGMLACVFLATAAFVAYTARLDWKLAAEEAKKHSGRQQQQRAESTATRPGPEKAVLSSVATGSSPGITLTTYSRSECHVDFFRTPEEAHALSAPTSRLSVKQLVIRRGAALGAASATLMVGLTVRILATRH

[3] = fold uptake over empty vector, 2.5 μM, 1 min
[4] = mean ratio of uptake in MATE1-overexpressing HEK293 cells vs empty vector, 2.5 μM, 1 min
[5] = mean ratio of uptake in MATE2K-overexpressing HEK293 cells vs empty vector, 2.5 μM, 1 min

N=C(N)NCCCCNC(=N)N [Arcaine, 1,4-diguanidinobutane]
MATE1 ratio [1, 3]: 40.20 | MATE1 ratio ([1]; fold uptake over empty vector, 2.5 μM, 1 min, listed as arcaine): 40 | MATE1 (uptake ratio) [1, 4]: 40.2 | MATE2K ratio [2, 3]: 16.29 | MATE2 (uptake ratio) [2, 5]: 16.29

CNCC[C@@H](Oc1ccccc1C)c1ccccc1 [Atomoxetine (S), Atomoxetine]
MATE1 ratio [1, 3]: 1.16 | MATE1 (uptake ratio) [1, 4]: 1.16 | MATE2K ratio [2, 3]: 1.03 | MATE2 (uptake ratio) [2, 5]: 1.03

COc1ccc(CC2c3cc(OC)c(OC)cc3CC[N+]2(C)CCC(=O)OCCCCCOC(=O)CC[N+]2(C)CCc3cc(OC)c(OC)cc3C2Cc2ccc(OC)c(OC)c2)cc1OC (centres unmarked) [Atracurium]
MATE1 ratio [1, 3]: 1.13 | MATE1 (uptake ratio) [1, 4]: 1.13 | MATE2K ratio [2, 3]: 1.10 | MATE2 (uptake ratio) [2, 5]: 1.1

NCC(CC(=O)O)c1ccc(Cl)cc1 (centres unmarked) [Baclofen]
MATE1 ratio [1, 3]: 1.45 | MATE1 (uptake ratio) [1, 4]: 1.45 | MATE2K ratio [2, 3]: 1.05 | MATE2 (uptake ratio) [2, 5]: 1.05

CN(C)C(=O)Oc1cc(OC(=O)N(C)C)cc(C(O)CNC(C)(C)C)c1 (centres unmarked) [Bambuterol]
MATE1 ratio [1, 3]: 1.52 | MATE1 (uptake ratio) [1, 4]: 1.52 | MATE2K ratio [2, 3]: 1.21 | MATE2 (uptake ratio) [2, 5]: 1.21

CCS(=O)(=O)N1CC(CC#N)(n2cc(-c3ncnc4[nH]ccc34)cn2)C1 [Baricitinib]
MATE1 ratio in this study ([1]; Table S1, 2.5 μM, 1 min): 0.82 | MATE1 ratio [1, 3]: 0.82 | MATE1 (uptake ratio) [1, 4]: 0.82 | MATE2K ratio in this study ([2]; Table S1, 2.5 μM, 1 min): 1.04 | MATE2K ratio [2, 3]: 1.04 | MATE2 (uptake ratio) [2, 5]: 1.04

CC(=O)c1cc2cccc(OCC(O)CNC(C)C)c2o1 (centres unmarked) [Befunolol]
MATE1 ratio [1, 3]: 1.39 | MATE1 (uptake ratio) [1, 4]: 1.39 | MATE2K ratio [2, 3]: 1.38 | MATE2 (uptake ratio) [2, 5]: 1.38

CC[N+](CC)(CC)Cc1ccccc1 [Benzyltriethylammonium]
MATE1 ratio [1, 3]: 25.63 | MATE1 (uptake ratio) [1, 4]: 25.63 | MATE2K ratio [2, 3]: 4.52 | MATE2 (uptake ratio) [2, 5]: 4.52

CC(C)NCC(O)COc1ccc(CCOCC2CC2)cc1 (centres unmarked) [Betaxolol]
MATE1 ratio [1, 3]: 1.37 | MATE1 (uptake ratio) [1, 4]: 1.37 | MATE2K ratio [2, 3]: 1.43 | MATE2 (uptake ratio) [2, 5]: 1.43

CC(C[N+](C)(C)C)OC(N)=O (centres unmarked) [Bethanechol]
MATE1 ratio [1, 3]: 0.23 | MATE1 (uptake ratio) [1, 4]: 0.23 | MATE2K ratio [2, 3]: 0.97 | MATE2 (uptake ratio) [2, 5]: 0.97

Cc1ccc(C23CNCC2C3)cc1 (centres unmarked) [Bicifadine]
MATE1 ratio [1, 3]: 1.17 | MATE1 (uptake ratio) [1, 4]: 1.17 | MATE2K ratio [2, 3]: 1.31 | MATE2 (uptake ratio) [2, 5]: 1.31

Cc1ccc(C(=O)Oc2ccc(C(O)CNC(C)(C)C)cc2OC(=O)c2ccc(C)cc2)cc1 (centres unmarked) [Bitolterol]
MATE1 ratio [1, 3]: 0.38 | MATE1 (uptake ratio) [1, 4]: 0.38 | MATE2K ratio [2, 3]: 0.57 | MATE2 (uptake ratio) [2, 5]: 0.57

CC(C)C[C@H](NC(=O)[C@H](Cc1ccccc1)NC(=O)c1cnccn1)B(O)O [Bortezomib]
MATE1 ratio [1, 3]: 1.20 | MATE1 (uptake ratio) [1, 4]: 1.2 | MATE2K ratio [2, 3]: 1.10 | MATE2 (uptake ratio) [2, 5]: 1.1

COc1cc2c(cc1OC)[C@@]13CCN4CC5=CCO[C@H]6CC(=O)N2[C@H]1[C@H]6[C@H]5C[C@H]43 [Brucine]
MATE1 (uptake ratio) [1]: 1.13 | MATE1 ratio [1]: 1.13 | MATE2 (uptake ratio) [2]: 1.3 | MATE2K ratio [2]: 1.30

CCCCNC(=N)NC(=N)N [Buformin]
MATE1 (uptake ratio) [1]: 24.8 | MATE1 ratio [1]: 24.80 | MATE2 (uptake ratio) [2]: 2.37 | MATE2K ratio [2]: 2.37

CCCCNc1cc(C(=O)O)cc(S(N)(=O)=O)c1Oc1ccccc1 [Bumetanide]
MATE1 ratio [1, 3]: 2.02 | MATE1 (uptake ratio) [1, 4]: 2.02 | substrate of MATE1 ([1]; organic anions tested): substrates of MATE1 | MATE2K ratio [2, 3]: 1.18 | MATE2 (uptake ratio) [2, 5]: 1.18

CC(C)(C)NCC(O)COc1ccccc1C#N (centres unmarked) [Bunitrolol]
MATE1 ratio [1, 3]: 1.17 | MATE1 (uptake ratio) [1, 4]: 1.17 | MATE2K ratio [2, 3]: 1.31 | MATE2 (uptake ratio) [2, 5]: 1.31

CCCC[N+]1(C)[C@@H]2C[C@@H](OC(=O)[C@H](CO)c3ccccc3)C[C@H]1[C@@H]1O[C@@H]12 (some centres unmarked) [Butylscopolamine]
MATE1 (uptake ratio) [1]: 23.84 | MATE1 ratio [1]: 23.84 | MATE1 ratio in this study [1]: 23.84 | MATE2 (uptake ratio) [2]: 1.7 | MATE2K ratio [2]: 1.70 | MATE2K ratio in this study [2]: 1.70

CCCC(=O)OC(CC(=O)[O-])C[N+](C)(C)C (centres unmarked) [Butyrylcarnitine]
MATE1 ratio [1, 3]: 0.82 | MATE1 (uptake ratio) [1, 4]: 0.82 | MATE2K ratio [2, 3]: 1.09 | MATE2 (uptake ratio) [2, 5]: 1.09

NCCCCCN [Cadaverine]
MATE1 (uptake ratio) [1]: 0.23 | MATE1 ratio [1]: 0.23 | MATE2 (uptake ratio) [2]: 0.53 | MATE2K ratio [2]: 0.53

COc1cc(CNC(=O)CCCC/C=C/C(C)C)ccc1O [Capsaicin]
MATE1 ratio [1, 3]: 1.18 | MATE1 (uptake ratio) [1, 4]: 1.18 | MATE2K ratio [2, 3]: 0.99 | MATE2 (uptake ratio) [2, 5]: 0.99

C[N+](C)(C)C[C@H](O)CC(=O)[O-] [Carnitine]
MATE1 (uptake ratio) [1]: 1.16 | MATE1 ratio [1]: 1.16 | MATE2 (uptake ratio) [2]: 1.13 | MATE2K ratio [2]: 1.13

NCCC(=O)N[C@@H](Cc1cnc[nH]1)C(=O)O [Carnosine]
MATE1 ratio [1, 3]: 0.18 | MATE1 (uptake ratio) [1, 4]: 0.18 | MATE2K ratio [2, 3]: 1.03 | MATE2 (uptake ratio) [2, 5]: 1.03

CC(C)(C)NCC(O)COc1cccc2c1CCC(=O)N2 (centres unmarked) [Carteolol]
MATE1 ratio [1, 3]: 7.43 | MATE1 (uptake ratio) [1, 4]: 7.43 | MATE2K ratio [2, 3]: 6.67 | MATE2 (uptake ratio) [2, 5]: 6.67

COc1ccccc1OCCNCC(O)COc1cccc2[nH]c3ccccc3c12 [Carvedilol (R), Carvedilol]
MATE1 ratio [1, 3]: 1.17 | MATE1 (uptake ratio) [1, 4]: 1.17 | MATE2K ratio [2, 3]: 1.08 | MATE2 (uptake ratio) [2, 5]: 1.08

COc1ccccc1OCCNCC(O)COc1cccc2[nH]c3ccccc3c12 [Carvedilol (S), Carvedilol]
MATE1 ratio [1, 3]: 1.19 | MATE1 (uptake ratio) [1, 4]: 1.19 | MATE2K ratio [2, 3]: 1.18 | MATE2 (uptake ratio) [2, 5]: 1.18

CCN(CC)C(=O)Nc1ccc(OCC(O)CNC(C)(C)C)c(C(C)=O)c1 (centres unmarked) [Celiprolol]
MATE1 ratio [1, 3]: 11.01 | MATE1 (uptake ratio) [1, 4]: 11.01 | MATE2K ratio [2, 3]: 8.76 | MATE2 (uptake ratio) [2, 5]: 8.76

C[C@@H]1O[C@@]2(CS1)CN1CCC2CC1 [Cevimeline]
MATE1 ratio [1, 3]: 1.59 | MATE1 (uptake ratio) [1, 4]: 1.59 | MATE2K ratio [2, 3]: 1.35 | MATE2 (uptake ratio) [2, 5]: 1.35

[H]/N=C(\N/C(=N/[H])NCCCCCCNC(=N)NC(=N)Nc1ccc(Cl)cc1)Nc1ccc(Cl)cc1 [Chlorhexidine]
MATE1 ratio [1, 3]: 1.08 | MATE1 (uptake ratio) [1, 4]: 1.08 | MATE2K ratio [2, 3]: 0.99 | MATE2 (uptake ratio) [2, 5]: 0.99

CN(C)CCCN1c2ccccc2Sc2ccc(Cl)cc21 [Chlorpromazine]
MATE1 ratio [1, 3]: 1.42 | MATE1 (uptake ratio) [1, 4]: 1.42 | MATE2K ratio [2, 3]: 1.33 | MATE2 (uptake ratio) [2, 5]: 1.33

CC1(C)C[C@@H]1C(=O)N/C(=C\CCCCSC[C@H](N)C(=O)O)C(=O)O [Cilastatin]
MATE1 (uptake ratio) [1]: 1.13 | MATE1 ratio [1]: 1.13 | MATE2 (uptake ratio) [2]: 0.96 | MATE2K ratio [2]: 0.96

C=C[C@H]1CN2CC[C@H]1C[C@H]2[C@H](O)c1ccnc2ccccc12 [Cinchonidine]
MATE1 (uptake ratio) [1]: 1.16 | MATE1 ratio [1]: 1.16 | MATE2 (uptake ratio) [2]: 1.14 | MATE2K ratio [2]: 1.14
